From PMC10044120, “Potent and selective covalent inhibition of the papain-like protease from SARS-CoV-2” (Nature Communications, 2023) come the findings set out here.

In series [1] the target is full-length SARS-CoV-2 hemagglutinin (HA)-Nsp3 (Severe acute respiratory syndrome coronavirus 2, UniProt P0DTD1). Kind of series: biochemical.
The test system of series [2] is SARS-CoV-2 Delta (B.1.617.2). The series can be described thus: microbe, parasite or virus in culture. It counts as cell-based. The conditions noted are these: Severe acute respiratory syndrome coronavirus 2; Delta (B1.617.2), Caco-2.
A short description of a further series: in vitro. The following applies: African green monkey.

The structures appear in SMILES notation. Read-outs that look alike come from different tables or passages of the source.

Regarding `COC(=O)/C=C/C(=O)NNC(=O)CCc1ccccc1C(=O)N[C@H](C)c1cccc2ccccc12` [Compound 7, methyl(R,E)-4-(2-(3-(2-((1-(naphthalen-1 yl)ethyl)carbamoyl)phenyl)propanoyl)hydrazineyl)-4-oxobut-2-enoate], in series [1] (0.003 uM, read-out: Percent Nsp3 inhibition), the inhibition (as a rule, the relative decrease from the control value, in per cent) at 0.003 µM is -4%. The “Percent Nsp3 inhibition” value in series [1] (1.852 uM) amounted to 84.0%; in series [1] (50.000 uM), 89.9%. In addition, in series [1] (1.852 uM, read-out: Percent Nsp3 inhibition), the inhibition at 1.852 µM was 83.9%. Besides, the inhibition at 50 µM in series [1] (50.000 uM, read-out: Percent Nsp3 inhibition) turned out to be 90.7%. In addition, in series [2], the EC90 (commonly the concentration at which the effect reaches the 90% level) is more than 10 µM. The CC50 was more than 10 µM in the series with Caco-2 cells (Caco-2, Delta rows) and more than 10 µM with Caco-2 cells (Caco-2, Omicron rows).

With `C[C@@H](NC(=O)c1ccccc1CCC(=O)NNC(=O)CCl)c1cccc2ccccc12` [Compound 9, (R)-2-(3-(2-(2-chloroacetyl)hydrazineyl)-3-oxopropyl)-N-(1-(naphthalen-1-yl)ethyl)benzamide], the CC50 at 48 h in the series “in vitro” (CC50) was more than 30 µM. Moreover, in the series “in vitro” (cytotoxicity, %cell viability), the viability (in general, a read-out of living cells in per cent, often relative to untreated cells) at 48 h, 2.08 µM amounted to 102%; the viability at 48 h, 8.33 µM was found to be 99.1%; the viability at 48 h, 16.65 µM turned out to be 91.4%.
